Results reported in patent publication US20040092547A1, “Alkyl-[4-(difluorophenyl)-oxazol-5-yl]-triazolo-pyridines” (Pfizer Inc, priority 2002, published 2004).

melting point: 175.7 to 176.2 °C
Structure (SMILES): CC(C)c1nnc2ccc(-c3ocnc3-c3c(F)cccc3F)cn12 [Example 1, 6-[4-(2,6-Difluoro-phenyl)-oxazol-5-yl]-3-isopropyl-[1,2,4]triazolo[4,3-a]pyridine]
